Structures can show the parent of a compound that is named as a salt.
Molecular target: mouse TAAR1 (Mus musculus (Mouse), UniProt Q923Y8)
Assay: Radioligand binding assay on mouse TAAR1
Conditions: mouse TAAR1, HEK-293 membranes, first value of cell mouse/rat; read-out: Ki (μM) mouse
Method: (§1) For the construction of expression plasmids the coding sequences of human, rat and mouse TAAR1 were amplified from genomic DNA essentially as described by Lindemann et al.. The Expand High Fidelity PCR System (Roche Diagnostics) was used with 1.5 mM Mg^2+ and purified PCR products were cloned into pCR2.1-TOPO cloning vector (Invitrogen) following the instructions of the manufacturer. PCR products were subcloned into the pIRESneo2 vector (BD Clontech, Palo Alto, Calif.), and expression vectors were sequence verified before introduction in cell lines.
(§2) HEK293 cells (ATCC #CRL-1573) were cultured essentially as described by Lindemann et al. (2005). For the generation of stably transfected cell lines HEK293 cells were transfected with the pIRESneo2 expression plasmids containing the TAAR coding sequences (described above) with Lipofectamine 2000 (Invitrogen) according to the instructions of the manufacturer, and 24 hrs post transfection the culture medium was supplemented with 1 mg/ml G418 (Sigma, Buchs, Switzerland). After a culture period of about 10 d clones were isolated, expanded and tested for responsiveness to trace amines (all compounds purchased from Sigma) with the cAMP Biotrak Enzyme immunoassay (EIA) System (Amersham) following the non-acetylation EIA procedure provided by the manufacturer.
Radioligand Binding Assay on Mouse TAAR1
(§3) Membrane Preparation and Radioligand Binding.
(§4) HEK-293 cells stably expressing mouse TAAR1 were maintained at 37° C. and 5% CO2 in DMEM high glucose medium, containing fetal calf serum (10%, heat inactivated for 30 min at 56° C.), penicillin/streptomycin (1%), and 375 μg/ml geneticin (Gibco). Cells were released from culture flasks using trypsin/EDTA, harvested, washed twice with ice-cold PBS (without Ca^2+ and Mg^2+), pelleted at 1,000 rpm for 5 min at 4° C., frozen and stored at −80° C. Frozen pellets were suspended in 20 ml HEPES-NaOH (20 mM, pH 7.4) containing 10 mM EDTA and homogenized with a Polytron (PT 6000, Kinematica) at 14,000 rpm for 20 s. The homogenate was centrifuged at 48,000×g for 30 min at 4° C. Subsequently, the supernatant was removed and discarded, and the pellet resuspended in 20 ml HEPES-NaOH (20 mM, pH 7.4) containing 0.1 mM EDTA using the Polytron (20 s at 14,000 rpm). This procedure was repeated and the final pellet resuspended in HEPES-NaOH containing 0.1 mM EDTA and homogenized using the Polytron. Typically, aliquots of 2 ml membrane portions were stored at −80° C. With each new membrane batch the dissociation constant (Kd) was determined via a saturation curve. […] Nonspecific binding was defined as the amount of ^3[H]—(S)-4-[(ethyl-phenyl-amino)-methyl]-4,5-dihydro-oxazol-2-ylamine bound in the presence of 10 μM unlabeled ligand. All compounds were tested at a broad range of concentrations (10 pM to 10 μM) in duplicates. […] The 96 deep well plates were incubated for 1 hr at 4° C. Incubations were terminated by rapid filtration through Unifilter-96 plates (Packard Instrument Company) and glass filters GF/C (Perkin Elmer) presoaked for 1 hr in polyethylenimine (0.3%) and washed 3 times with 1 ml of cold binding buffer. After addition of 45 μl of Microscint 40 (PerkinElmer) the Unifilter-96 plate was sealed and after 1 hr the ratioactivity counted using a TopCount Microplate Scintillation Counter (Packard Instrument Company).

Chain of mouse TAAR1 (Q923Y8 whole entry): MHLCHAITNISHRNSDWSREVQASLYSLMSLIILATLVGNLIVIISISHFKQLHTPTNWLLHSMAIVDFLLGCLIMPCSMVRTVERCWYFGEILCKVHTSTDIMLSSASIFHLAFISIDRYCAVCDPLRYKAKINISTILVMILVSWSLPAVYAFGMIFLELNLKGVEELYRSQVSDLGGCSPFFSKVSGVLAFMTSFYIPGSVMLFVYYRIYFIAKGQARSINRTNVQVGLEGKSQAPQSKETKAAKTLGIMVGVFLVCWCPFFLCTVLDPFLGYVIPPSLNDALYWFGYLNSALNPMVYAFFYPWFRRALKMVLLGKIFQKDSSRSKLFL

Row | SMILES | Ki [µM]
1 | C[C@@H](C(=O)Nc1ccc(C2CCNC2)cc1)c1ccccc1 (mixture of isomers) [Example 29, (R)-2-Phenyl-N—((RS)-4-pyrrolidin-3-yl-phenyl)-propionamide] | 0.102
2 | C[C@H](C(=O)Nc1ccc(C2CCNC2)cc1)c1ccccc1 (mixture of isomers) [Example 30, (S)-2-Phenyl-N—((RS)-4-pyrrolidin-3-yl-phenyl)-propionamide] | 0.053
3 | CC(C(=O)Nc1ccc(C2CCNC2)cc1)c1ccccc1 (racemic) [Example 25, (RS)-2-Phenyl-N—((RS)-4-pyrrolidin-3-yl-phenyl)-propionamide] | 0.32
4 | O=C(Nc1ccc(C2CCNC2)cc1)N1CCCCC1 (racemic) [Example 28, (RS)-Piperidine-1-carboxylic acid (4-pyrrolidin-3-yl-phenyl)-amide] | 0.434
5 | COc1cccc(C(C)C(=O)Nc2ccc(C3CCNC3)cc2)c1 (racemic) [Example 67, (RS)-2-(3-Methoxy-phenyl)-N—((RS)-4-pyrrolidin-3-yl-phenyl)-propionamide] | 0.499
6 | CN1CCOC(c2ccc(NC(=O)c3ccc(Cl)cc3)cc2)C1 (racemic) [Example 80, (RS)-4-Chloro-N-[4-(4-methyl-morpholin-2-yl)-phenyl]-benzamide] | 0.0035
7 | O=C(Nc1ccc(COC2CCNC2)cc1)c1ccc(Cl)cc1 (racemic) [Example 145, (RS)-4-Chloro-N-[4-(pyrrolidin-3-yloxymethyl)-phenyl]-benzamide hydrochloride] | 0.0227
8 | O=C(Nc1ccc(C2CNCCO2)cc1)c1ccc(Cl)c(Cl)c1 (racemic) [Example 147, (RS)-3,4-Dichloro-N-(4-morpholin-2-yl-phenyl)-benzamide hydrochloride] | 0.001
9 | O=C(Nc1ccc(C2CNCCO2)cc1)c1ccc(Cl)cn1 (racemic) [Example 148, (RS)-5-Chloro-pyridine-2-carboxylic acid (4-morpholin-2-yl-phenyl)-amide hydrochloride] | 0.0393
10 | COc1ccc(C(=O)Nc2ccc(C3CCNC3)cc2)cc1 (racemic) [Example 183, (RS)-4-Methoxy-N-(4-(pyrrolidin-3-yl)phenyl)benzamide hydrochloride] | 0.0526
11 | O=C(Nc1ccc(C2CCCNC2)cc1)c1ccccc1 (racemic) [Example 184, (RS)—N-(4-(piperidin-3-yl)phenyl)benzamide hydrochloride] | 0.153

Other lines, results leading:

Row | Ki [µM] | SMILES
12 | 0.0006 | CCN1CCC(c2ccc(NC(=O)c3ccc(Cl)cc3)cc2)C1 (racemic) [Example 33, (RS)-4-Chloro-N-[4-(1-ethyl-pyrrolidin-3-yl)-phenyl]-benzamide]
13 | 0.0663 | O=C(Nc1ccc(C2CCNC2)cn1)c1ccc(Cl)cc1 (racemic) [Example 181, (RS)-4-Chloro-N-(5-(pyrrolidin-3-yl)pyridin-2-yl)benzamide hydrochloride]

Molecular target: rat TAAR1 (Rattus norvegicus (Rat), UniProt Q923Y9)
Assay: Radioligand binding assay on rat TAAR1
Conditions: rat TAAR1, HEK-293 membranes, second value of cell mouse/rat; read-out: Ki (μM) rat
Method: as §1, §2
Radioligand Binding Assay on Rat TAAR1
as §3
as §4, with “rat” for “mouse”

Chain of rat TAAR1 (Q923Y9 whole entry): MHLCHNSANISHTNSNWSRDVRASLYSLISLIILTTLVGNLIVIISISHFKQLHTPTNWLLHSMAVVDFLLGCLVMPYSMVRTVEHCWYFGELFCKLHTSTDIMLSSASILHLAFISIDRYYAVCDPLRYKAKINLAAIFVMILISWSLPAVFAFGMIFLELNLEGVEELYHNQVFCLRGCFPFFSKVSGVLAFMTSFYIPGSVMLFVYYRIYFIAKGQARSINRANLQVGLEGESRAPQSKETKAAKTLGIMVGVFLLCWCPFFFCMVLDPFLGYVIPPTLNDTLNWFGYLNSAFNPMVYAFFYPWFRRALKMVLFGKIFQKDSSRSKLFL

Row | SMILES | Ki [µM]
14 | O=C(NCc1ccccc1)Nc1ccc(C2CCNC2)cc1 (racemic) [Example 9, (RS)-1-Benzyl-3-(4-pyrrolidin-3-yl-phenyl)-urea hydrochloride] | 1.11
15 | O=C(Nc1ccc(C2CCNC2)cc1)NC1CCCCC1 (racemic) [Example 10, (RS)-1-Cyclohexyl-3-(4-pyrrolidin-3-yl-phenyl)-urea hydrochloride] | 0.309
16 | CC1(c2ccc(NC(=O)c3ccccc3)cc2)CCNC1 (racemic) [Example 41, (RS)—N-[4-(3-Methyl-pyrrolidin-3-yl)-phenyl]-benzamide] | 2.98
17 | COCc1ccc(C(=O)Nc2ccc(C3CCNC3)cc2)cc1 (racemic) [Example 51, (RS)-4-Methoxymethyl-N-(4-pyrrolidin-3-yl-phenyl)-benzamide hydrochloride] | 0.0985
18 | O=C(Nc1ccc(C2CNCCO2)cc1)c1ccc(Cl)cc1 (racemic) [Example 71, (RS)-4-Chloro-N-(4-morpholin-2-yl-phenyl)-benzamide hydrochloride] | 0.0121
19 | O=C(Nc1ccc(C2CNCCO2)cc1)C1CCN(c2ccncn2)CC1 (racemic) [Example 287, (RS)—N-(4-(Morpholin-2-yl)phenyl)-1-(pyrimidin-4-yl)piperidine-4-carboxamide dihydrochloride] | 0.379
20 | O=C(NCc1ccc([C@H]2CNCCO2)cc1)c1ccc(Cl)cc1 [Example 317, (S)-4-Chloro-N-(4-(morpholin-2-yl)benzyl)benzamide hydrochloride] | 0.0226

Continued, values first:

Row | Ki [µM] | SMILES
21 | 0.29 | O=C(Cc1ccccc1)Nc1ccc(C2CCNC2)cc1 (racemic) [Example 12, (RS)-2-Phenyl-N-(4-pyrrolidin-3-yl-phenyl)-acetamide hydrochloride]
22 | 0.645 | CN(C(=O)Nc1ccc(C2CCNC2)cc1)c1ccccc1 (racemic) [Example 14, (RS)-1-Methyl-1-phenyl-3-(4-pyrrolidin-3-yl-phenyl)-urea]
23 | 0.359 | O=C(Nc1ccc(C2CCNC2)cc1)N1CCOCC1 (racemic) [Example 21, (RS)-Morpholine-4-carboxylic acid (4-pyrrolidin-3-yl-phenyl)-amide hydrochloride]
24 | 0.324 | O=C(Nc1ccc(C2CCN(c3ccccc3)C2)cc1)c1ccc(Cl)cc1 (racemic) [Example 36, (RS)-4-Chloro-N-[4-(1-phenyl-pyrrolidin-3-yl)-phenyl]-benzamide]
25 | 0.0007 | O=C(Nc1ccc(C2CCNC2)cc1)OCCc1ccc(OC(F)(F)F)cc1 (racemic) [Example 125, (RS)-(4-Pyrrolidin-3-yl-phenyl)-carbamic acid 2-(4-trifluoromethoxy-phenyl)-ethyl ester]
26 | 0.0123 | O=C(Nc1ccc(C2CCCNC2)cn1)c1ccc(Cl)cc1 (racemic) [Example 187, (RS)-4-Chloro-N-(5-(piperidin-3-yl)pyridin-2-yl)benzamide hydrochloride]
27 | 0.0677 | Cc1cnc(C(=O)Nc2ccc([C@@H]3CCCNC3)cc2)cn1 [Example 247, (S)-5-Methyl-N-(4-(piperidin-3-yl)phenyl)pyrazine-2-carboxamide hydrochloride]
28 | 0.0206 | O=C(NCc1ccc([C@H]2CNCCO2)cc1)c1ccc(Cl)nc1 [Example 319, (S)-6-Chloro-N-(4-(morpholin-2-yl)benzyl)nicotinamide hydrochloride]

Same assay, conditions: read-out: Ki (μM) rat

Row | SMILES | Ki [µM]
29 | O=C(NCc1ccc([C@H]2CNCCO2)cc1)c1ccc(C(F)(F)F)nc1 [Example 320, (S)—N-(4-(Morpholin-2-yl)benzyl)-6-(trifluoromethyl)nicotinamide hydrochloride] | 0.0249
